Results on one compound are retold here after patent publication US20210346500A1, “PHOTOOXIDATIVE INACTIVATION OF PATHOGENS INCLUDING SARS-CoV-2” (laneg GmbH, priority 2020, published 2021).

“Also recorded” adds a separate entry of the source.

Type in all cases: in vivo, human
The nature of data set [1]: Treatment related adverse events in the clinical study. The following applies: methylene blue + 660 nm irradiation, 300 patients. The protocol:
(§1) The photodynamic excitation was performed using the Medlouxx PDT device, produced by laneg GmbH, Germany (www.medlouxx.com). The device applicator emits 660nm laser radiation with 240 mW power. The infected areas were irradiated for 5 minutes resulting in a dosage of about 72 J/cm2. This procedure: 1 min flushing followed by 5 minutes irradiation, was repeated 5 times, resulting in a total dosage of about 360 J/cm2. Before and immediately after the photodynamic treatments, the viral concentration was determined by PCR tests using the PCR real time testing facility ThermoFisher, QuantStudio 3.
(§2) We have treated 300 patients with the active treatment protocol and 300 patients with the placebo protocol described above. The active treatment group consisted of 164 men and 136 women, with an age range of 35-83 years. All patients signed informed consent prior to the start of the treatment protocol. The main inclusion citeria were fever, typical symptoms and a positive PCR test. The main exclusion criterium was a negative PCR test. Besides fever, we have found a significant variability in the initial presenting symptoms, like cough, loss of smell, loss of taste, headaches, fatigue and others.

The subject of a further data set is SARS-CoV-2 (COVID-19). Nature of the data set: Placebo-controlled clinical study of photodynamic treatment: course of disease and mortality in COVID-19 patients. The method, then:
The photosensitizer used was methylene blue as a 1% solution of methylthioninium-chloride dissolved in a 5% glucose solution. (Heltschl GmbH, Germany). The methylene blue solution was applied by flushing and gargling in the oral cavity and throat, and by spraying in the nasal cavity.
as §1
The placebo patients received exactly same treatment procedure except that all placebo patients were treated with covered radiation heads. The patients were not able to distinguish an active versus a placebo treatment due to the filter function of the laser safety goggles.
as §2
We have characterized the course of the disease by the degree and duration of fever which was the most prominent symptom (see Table 1): […]

For another data set, the system named is SARS CoV-2. The following applies: active treatment group, 4 weeks after photodynamic treatments; ELISA not specific for SARS CoV vs SARS CoV-2. On the technique in general: In an ELISA, binding on a coated surface is turned into a signal by an enzyme label.
Where [2] appears, read: max fever 39.2° C., 3 weeks, methylene blue + 660 nm irradiation, 300 patients.
Setting [3] is: max fever 39.5° C., 4-6 weeks, methylene blue + 660 nm irradiation, 300 patients.
The mark [4] stands for this setting: moderate = max fever 38.7° C., 2 weeks, methylene blue + 660 nm irradiation, 300 patients.

Take `CN(C)c1ccc2nc3ccc(=[N+](C)C)cc-3sc2c1` [methylene blue, methylthioninium-chloride]: the “Treatment related adverse events / side effects” value in data set [1] was “free of any side effects; also recorded: no treatment related adverse events”. Further, the “Mortality Rate - Active Treatment Group” value in the data set with SARS-CoV-2 (COVID-19) (300 patients, methylene blue + 660 nm irradiation) worked out at 0.7%. Also, in the data set on SARS-CoV-2 (COVID-19) (setting [2]), the “Disease course Severe (Hospital Admission), Active Treatment Number” value worked out at 6 patients and the “Disease course Severe (Hospital Admission), Active Treatment Percentage” value turned out to be 2%. Further, in the data set with SARS-CoV-2 (COVID-19) (setting [3]), the “Disease course Severe (Hospital/ICU Admission), Active Treatment Number” value stood at 2 patients and the “Disease course Severe (Hospital/ICU Admission), Active Treatment Percentage” value is given as 0.6%. The “Disease course Mild, Active Treatment Number” value with SARS-CoV-2 (COVID-19) (mild = max fever 37.7° C., 1 week, 1% methylene blue flushing/gargling/spraying + 660 nm, 240 mW, total about 360 J/cm2, 300 patients) was 192 patients. For the same compound, the “Disease course Mild, Active Treatment Percentage” value in the data set on SARS-CoV-2 (COVID-19) (mild = max fever 37.7° C., 1 week, methylene blue + 660 nm irradiation, 300 patients) amounted to 64%. Moreover, in the data set with SARS-CoV-2 (COVID-19) (setting [4]), the “Disease course Moderate, Active Treatment Number” value was 99 patients and the “Disease course Moderate, Active Treatment Percentage” value was 33%. Besides, the “Severe course of disease (both severe categories together), active treatment group” value in the data set on SARS-CoV-2 (COVID-19) (vs. 19% in placebo, methylene blue + 660 nm irradiation) is 2.6%. Moreover, in the data set with SARS-CoV-2 (COVID-19) (vs. 81% in placebo, methylene blue + 660 nm irradiation), the “Attenuation of disease progression (mild plus moderate course), active treatment group” value amounted to 97%. The “Patients with presence of antibodies (ELISA)” value in the data set on SARS CoV-2 is 96%.
